Test system: HepG2^control cells
Assay: Seahorse cellular respiration (OCR)
Type: cell-based, human
Conditions: NG-497 40 μM
Excerpt: NG-497 could affect respiration by limiting the availability of FAs as an energy substrate or by off-target effects leading to mitochondrial dysfunction, which is a major mechanism of drug-induced toxicity.[47] To monitor on- and off-target effects of NG-497 on cellular respiration, we performed seahorse experiments using HepG2 cells endogenously expressing (HepG2^control) or lacking ATGL (HepG2^AKO). This method allows the measurement of basal respiration (BR), maximal respiration (MR), proton leak (PL), ATP production (ATPP), spare respiratory capacity (SRC), and nonmitochondrial oxygen consumption (NMOC) after successive addition of oligomycin (ATP-synthase inhibitor), carbonyl cyanide p-trifluoromethoxyphenylhydrazone (FCCP) (uncoupler), and antimycin/rotenone (electron transport chain inhibitors). The human hepatoma cell line HepG2 was selected as a model since it is frequently used to monitor drug-induced mitochondrial dysfunction.[48] Like most cancer cell lines, HepG2 cells rely on anaerobic glycolysis for ATP generation, implicating that inhibition of lipolysis has only minor effects on respiration.
(a) HepG2 cells were treated with NG-497 (40 μM) or DMSO as control and oxygen consumption rate (OCR) was determined in Seahorse growth medium supplemented with glucose (25 mM) using the SeaHorse XF96 extracellular flux analyzer. OCR was determined after subsequent addition of 1 μM Oligomycin (ATP-synthase inhibitor), 1 μM FCCP (uncoupler), and 1 μM antimycin/rotenone (electron transport chain inhibitors). (b) Statistical analysis of basal respiration (BR), maximal respiration (MR), proton leak (PL), ATP production (ATPP), spare respiratory capacity (SRC), and nonmitochondrial oxygen consumption (NMOC) of control and NG-497-treated cells. (c) Extracellular acidification rate (ECAR) and (d) OCR of HepG2 cells were determined in Seahorse growth medium supplemented with glucose (25 mM) or galactose (10 mM). (e) Determination of the ORC of HepG2 cells grown in medium supplemented with galactose (10 mM) and NG-497 (40 μM) or DMSO as control with (f) respective statistical analysis. (g) ATGL gene was inactivated in HepG2 cells using the CRISPR/Cas9 system. Growth of cells expressing (HepG2^control) or lacking functional ATGL (HepG2^AKO) was determined using a BioRad cell analyzer. ATGL expression was analyzed by Western blotting analysis using an anti-ATGL antibody and GAPDH as a loading control (inset). (h) Acylglycerol content of HepG2^control and HepG2^AKO cells was determined by a commercial kit (TG Infinity reagent, Thermo Fisher Scientific). (i) OCR of galactose-supplemented HepG2^AKO cells and (j) the respective statistical analysis. Data are presented as mean ± standard error of the mean (SEM). Statistical significance was determined via Student’s t test (*p < 0.05; **p < 0.01; ***p < 0.001) or ANOVA followed by Bonferroni post hoc test (^#p < 0.05; ^##p < 0.01; ^###p < 0.001). […]
Sanger sequencing. The resulting constructs were transfected into HepG2 cells using the Turbofect Reagent (#R0531, Thermo Fisher Scientific) according to the manufacturer’s instructions. Cells transfected with empty pSpCas9(BB)-2A-Puro V2.0 served as negative control. 24 h after transfection, puromycin was added at a concentration of 4 µg/ml to eliminate non-transfected cells.
48 h later, the remaining cells were singularized in 96-well plates by seeding 1 cell/well. After clonal expansion for three weeks, the resulting cell lines were screened for ATGL deletion by immunoblotting using an ATGL-specific antibody (#2138S, CST). gRNA_v1 construct was chosen for further analysis.
Determination of cellular acylglycerol content. Cells were harvested in buffer A, total lipids extracted with chloroform/methanol (2/1, v/v) for 1 h at RT on a top-over wheel, and phase separation was achieved by centrifugation at 2,000 x g for 10min at RT. The organic phase was collected, dried under a stream of nitrogen, and dissolved in 2% Triton X-100 by […]
sonication. […]

[1] = glucose medium, tendency, not significant

CCOc1ccc(-c2cc(OC)cc(C(=O)OC(C)C)n2)cc1 [NG-497]
change of basal OCR (BR) (galactose (10 mM) medium): −15% | change of maximal respiration (MR) (galactose (10 mM) medium): −17% | change of spare respiratory capacity (SRC) (galactose (10 mM) medium): −20% | change of maximal respiration (MR) [1]: −11% | change of spare respiratory capacity (SRC) [1]: −18% | effects on respiration (OCR parameters) (medium with glucose (25 mM)): could not observe significant effects
